# Where “and” joins values, the source holds several entries; their conditions need not be identical. Identical values can stand only once.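 Each compound was tested at five concentrations against cells in 96-well plates for 48 hours. The concentration for 50% growth inhibition is given as GI50. TGI marks complete inhibition of growth.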
# Experiments:
# Assay in all cases: NCI tumour cell line growth inhibition, 48 h
# MCF7 breast = system: MCF7 breast
# UACC-62 melanoma = system: UACC-62 melanoma
# SNB-75 CNS = system: SNB-75 CNS
# SK-MEL-5 melanoma = system: SK-MEL-5 melanoma
# NCI-H460 lung = system: NCI-H460 lung
# ACHN renal = system: ACHN renal
# NCI-H522 lung = system: NCI-H522 lung
# SN12C renal = system: SN12C renal
# SK-OV-3 ovarian = system: SK-OV-3 ovarian
# OVCAR-8 ovarian = system: OVCAR-8 ovarian
SMILES,GI50 (MCF7 breast),TGI (MCF7 breast),GI50 (UACC-62 melanoma) [µM],TGI (UACC-62 melanoma) [µM],GI50 (SNB-75 CNS),TGI (SNB-75 CNS),GI50 (SK-MEL-5 melanoma),TGI (SK-MEL-5 melanoma),GI50 (NCI-H460 lung),TGI (NCI-H460 lung),GI50 (ACHN renal),TGI (ACHN renal),GI50 (NCI-H522 lung),TGI (NCI-H522 lung),GI50 (SN12C renal),TGI (SN12C renal),GI50 (SK-OV-3 ovarian),TGI (SK-OV-3 ovarian),GI50 (OVCAR-8 ovarian),TGI (OVCAR-8 ovarian)
Cc1ccc(-c2nc3nc(-c4ccccc4)nc(N4CCNCC4)c3o2)cc1,0.401 µM,1.73 µM,1.74,3.27,1.58 µM,3.02 µM,1.65 µM,3.04 µM,0.226 µM,0.503 µM,0.495 µM,1.07 µM,0.745 µM,2.26 µM,0.849 µM,2.31 µM,1.9 µM,3.42 µM,0.366 µM,1.19 µM
O=C1NOC(c2ccc(O)cc2)(c2ccc(O)cc2)c2ccccc21,> 100 µM,> 100 µM,> 100,> 100,> 100 µM,> 100 µM,> 100 µM,> 100 µM,> 100 µM,> 100 µM,> 100 µM,> 100 µM,> 100 µM,> 100 µM,> 100 µM,> 100 µM,> 100 µM,> 100 µM,> 100 µM,> 100 µM
COc1ccc(Cl)c(Nc2nc3ccccc3nc2NS(=O)(=O)c2cccc(NC(=O)C(C)(C)N)c2)c1,2.66 µM and 1.9 µM,16.8 µM and > 10 µM,13,26.6,1.35 µM and 0.481 µM,10 µM and 6.6 µM,12.1 µM and > 10 µM,24.6 µM and > 10 µM,6.51 µM and 4.52 µM,20.8 µM and > 10 µM,10.5 µM and > 10 µM,22.6 µM and > 10 µM,14.7 µM and > 10 µM,30.5 µM and > 10 µM,9.79 µM and > 10 µM,22.3 µM and > 10 µM,5 µM and 1.89 µM,18.6 µM and > 10 µM,14 µM and > 10 µM,32.8 µM and > 10 µM
O=[N+]([O-])c1ccc(N=Nc2ccc(O)c3ccccc23)cc1,2.42 µM,> 100 µM,4.76,32.9,2.45 µM,> 100 µM,2.55 µM,13.6 µM,3.49 µM,27.1 µM,3.13 µM,> 100 µM,2.23 µM,8.18 µM,3.55 µM,> 100 µM,11.9 µM,47.7 µM,3.1 µM,> 100 µM
CCC[CH2][Sn]1([CH2]CCC)[O]C2C(CO)OC(n3ccc(N)nc3=O)C2[O]1 (stereo not given),0.3 µM,1.42 µM,1.12,2.41,1.05 µM,2.28 µM,1.61 µM,2.99 µM,1.79 µM,3.6 µM,1.35 µM,2.67 µM,0.186 µM,0.424 µM,1.45 µM,2.83 µM,1.82 µM,3.38 µM,1.66 µM,3.11 µM
Nc1ncnc2c1c(-c1ccc(Oc3ccccc3)cc1)nn2C[C@@H]1SSC[C@H]1O,0.898 µM,3.79 µM,0.264,0.882,4.25 µM,> 33.4 µM,0.874 µM,2.3 µM,0.281 µM,1.45 µM,2.02 µM,10.5 µM,2.08 µM,7.18 µM,2.31 µM,10.2 µM,0.92 µM,4.33 µM,3.35 µM,14.3 µM
COc1ccc(C2=CC(c3ccc(OC)cc3Br)N3C=CSC3=N2)cc1 (stereo not given),1.51 µM,11.2 µM,2.79,10.7,15.6 µM,43.7 µM,4.32 µM,16.6 µM,11.9 µM,34.6 µM,2.39 µM,5.88 µM,5.22 µM,20.7 µM,10 µM,25.5 µM,6.78 µM,27 µM,4.09 µM,27.8 µM
O=[N+]([O-])c1ccc(N2CCC(CCCC3CCN(c4ccc([N+](=O)[O-])cc4[N+](=O)[O-])CC3)CC2)c([N+](=O)[O-])c1,–,28.3 µM,–,24.4,–,32.8 µM,–,30.7 µM,–,28.8 µM,–,35.4 µM,–,42.8 µM,–,> 100 µM,–,37.5 µM,–,33.3 µM
CCOC(=O)c1cc2c(n1Cc1cc(OC)c(OC)c(OC)c1)-c1oncc1CCC2,0.0589 µM,> 66.5 µM,0.0666,> 40.3,0.111 µM,> 61.7 µM,0.207 µM,7.01 µM,0.284 µM,13.7 µM,0.296 µM,> 59.9 µM,0.0208 µM,0.073 µM,0.628 µM,> 40.1 µM,0.185 µM,3.55 µM,0.332 µM,> 49.7 µM
Nc1c(C(=O)c2cccc(-c3cccnc3)c2)cnn1-c1ccc(F)cc1F,1.59 µM,> 25 µM,2.65,> 25,5.33 µM,> 25 µM,1.8 µM,13.8 µM,1.52 µM,> 25 µM,6.92 µM,> 25 µM,1.57 µM,> 15 µM,7.53 µM,> 25 µM,7.21 µM,> 25 µM,8.13 µM,> 25 µM

# From PubChem BioAssay (NCI)
